# Tests used:
# rice (Oryza sativa) = assay: Test B flooded paddy test, visual rating 0-100 (0 no effect, 100 complete control); settings: Flood, 250 g ai/ha, applied to paddy water, rated after 13 to 15 days
# [1] = system: wheat (Triticum aestivum); assay: Test A postemergence, visual injury rating 0-100; assay type: in vivo; settings: 0 to 100 scale
# [2] = system: barnyardgrass (Echinochloa crus-galli); assay: Test A postemergence, visual injury rating 0-100; assay type: in vivo; settings: 0 to 100 scale
# [3] = system: blackgrass (Alopecurus myosuroides); assay: Test A postemergence, visual injury rating 0-100; assay type: in vivo; settings: 0 to 100 scale
# [4] = system: ryegrass, Italian (Italian ryegrass, Lolium multiflorum); assay: Test A postemergence, visual injury rating 0-100; assay type: in vivo; settings: 0 to 100 scale
# [5] = system: foxtail, giant (giant foxtail, Setaria faberii); assay: Test A postemergence, visual injury rating 0-100; assay type: in vivo; settings: 0 to 100 scale
# kochia (Kochia scoparia) [6] = assay: Test A postemergence, visual injury rating 0-100; assay type: in vivo; settings: 0 to 100 scale
# [7] = system: pigweed (Amaranthus retroflexus); assay: Test A postemergence, visual injury rating 0-100; assay type: in vivo; settings: 0 to 100 scale
# corn (Zea mays) = assay: Test A postemergence, visual injury rating 0-100; assay type: in vivo; settings: 0 to 100 scale
# [8] = system: galium (catchweed bedstraw, Galium aparine); assay: Test A postemergence, visual injury rating 0-100; assay type: in vivo; settings: 0 to 100 scale
# [9] = system: ragweed (common ragweed, Ambrosia elatior); assay: Test A postemergence, visual injury rating 0-100; assay type: in vivo; settings: 0 to 100 scale
# [10] = system: barnyardgrass (Echinochloa crus-galli); assay: Test A preemergence, visual injury rating 0-100 (0 no effect, 100 complete control); assay type: in vivo
# [11] = system: barnyardgrass (Echinochloa crus-galli); assay: Test B flooded paddy test, visual rating 0-100; settings: Flood, 250 g ai/ha, applied to paddy water, rated after 13 to 15 days
# [12] = system: ducksalad (Heteranthera limosa); assay: Test B flooded paddy test, visual rating 0-100; settings: Flood, 250 g ai/ha, applied to paddy water, rated after 13 to 15 days
# [13] = system: ryegrass, Italian (Italian ryegrass, Lolium multiflorum); assay: Test A preemergence, visual injury rating 0-100; assay type: in vivo; settings: 500 g ai/ha
# [14] = system: foxtail, giant (giant foxtail, Setaria faberii); assay: Test A preemergence, visual injury rating 0-100; assay type: in vivo
# kochia (Kochia scoparia) [15] = assay: Test A preemergence, visual injury rating 0-100; assay type: in vivo
# [16] = system: pigweed (Amaranthus retroflexus); assay: Test A preemergence, visual injury rating 0-100; assay type: in vivo
# [17] = system: ragweed (common ragweed, Ambrosia elatior); assay: Test A preemergence, visual injury rating 0-100; assay type: in vivo
Structure (SMILES),Rice plant response rating (0 to 100 scale) (rice (Oryza sativa)),Wheat plant response rating ([1]; 125 g ai/ha),Wheat plant response rating ([1]; 500 g ai/ha),Barnyardgrass plant response rating ([2]; 125 g ai/ha),Barnyardgrass plant response rating ([2]; 500 g ai/ha),Blackgrass plant response rating ([3]; 125 g ai/ha),Blackgrass plant response rating ([3]; 500 g ai/ha),"Ryegrass, Italian plant response rating ([4]; 125 g ai/ha)","Ryegrass, Italian plant response rating ([4]; 500 g ai/ha)","Foxtail, Giant plant response rating ([5]; 125 g ai/ha)","Foxtail, Giant plant response rating ([5]; 500 g ai/ha)",Kochia plant response rating (kochia (Kochia scoparia) [6]; 125 g ai/ha),Kochia plant response rating (kochia (Kochia scoparia) [6]; 500 g ai/ha),Pigweed plant response rating ([7]; 125 g ai/ha),Pigweed plant response rating ([7]; 500 g ai/ha),Corn plant response rating (corn (Zea mays); 125 g ai/ha),Corn plant response rating (corn (Zea mays); 500 g ai/ha),Galium plant response rating ([8]; 125 g ai/ha),Galium plant response rating ([8]; 500 g ai/ha),Ragweed plant response rating ([9]; 125 g ai/ha),further results
CC1=[N+]([O-])C(C(=O)Nc2cccc(F)c2F)C(c2ccc(Cl)c(C(F)(F)F)c2)C1 (racemic) [Compound 104],0,10,50,60,80,70,70,20,70,20,80,50,70,30,70,70,60,30,70,20,"Ragweed plant response rating ([9]; 500 g ai/ha): 70; Barnyardgrass plant response rating (0 to 100 scale) ([10]; 125 g ai/ha): 80; Barnyardgrass plant response rating (0 to 100 scale) ([10]; 500 g ai/ha): 90; Barnyardgrass plant response rating (0 to 100 scale) [11]: 40; Ducksalad plant response rating (0 to 100 scale) [12]: 40; Ryegrass, Italian plant response rating (0 to 100 scale) [13]: 90; Foxtail, Giant plant response rating (0 to 100 scale) ([14]; 125 g ai/ha): 90; Foxtail, Giant plant response rating (0 to 100 scale) ([14]; 500 g ai/ha): 90; Kochia plant response rating (0 to 100 scale) (kochia (Kochia scoparia) [15]; 125 g ai/ha): 30; Kochia plant response rating (0 to 100 scale) (kochia (Kochia scoparia) [15]; 500 g ai/ha): 70; Pigweed plant response rating (0 to 100 scale) ([16]; 125 g ai/ha): 10; Pigweed plant response rating (0 to 100 scale) ([16]; 500 g ai/ha): 80; Ragweed plant response rating (0 to 100 scale) ([17]; 125 g ai/ha): 20; Ragweed plant response rating (0 to 100 scale) ([17]; 500 g ai/ha): 60"
CC1=[N+]([O-])C(C(=O)Nc2cccc(F)c2F)C(c2cccc(C3OCCO3)c2)C1 (racemic) [Compound 105],0,0,30,30,80,20,60,0,40,10,30,0,0,0,0,0,40,30,40,0,"Ragweed plant response rating ([9]; 500 g ai/ha): 40; Barnyardgrass plant response rating (0 to 100 scale) ([10]; 125 g ai/ha): 30; Barnyardgrass plant response rating (0 to 100 scale) ([10]; 500 g ai/ha): 90; Barnyardgrass plant response rating (0 to 100 scale) [11]: 0; Ducksalad plant response rating (0 to 100 scale) [12]: 0; Ryegrass, Italian plant response rating (0 to 100 scale) [13]: 80; Foxtail, Giant plant response rating (0 to 100 scale) ([14]; 125 g ai/ha): 60; Foxtail, Giant plant response rating (0 to 100 scale) ([14]; 500 g ai/ha): 90; Kochia plant response rating (0 to 100 scale) (kochia (Kochia scoparia) [15]; 125 g ai/ha): 0; Kochia plant response rating (0 to 100 scale) (kochia (Kochia scoparia) [15]; 500 g ai/ha): 60; Pigweed plant response rating (0 to 100 scale) ([16]; 125 g ai/ha): 0; Pigweed plant response rating (0 to 100 scale) ([16]; 500 g ai/ha): 0; Ragweed plant response rating (0 to 100 scale) ([17]; 125 g ai/ha): 0; Ragweed plant response rating (0 to 100 scale) ([17]; 500 g ai/ha): 0"
CC1=[N+]([O-])C(C(=O)Nc2cccc(F)c2F)C(c2cccc(C(F)(F)F)c2C)C1 (racemic) [Compound 106],0,40,70,70,90,80,70,70,70,80,90,0,30,0,20,60,90,40,70,30,"Ragweed plant response rating ([9]; 500 g ai/ha): 70; Barnyardgrass plant response rating (0 to 100 scale) ([10]; 125 g ai/ha): 90; Barnyardgrass plant response rating (0 to 100 scale) ([10]; 500 g ai/ha): 90; Barnyardgrass plant response rating (0 to 100 scale) [11]: 60; Ducksalad plant response rating (0 to 100 scale) [12]: 70; Ryegrass, Italian plant response rating (0 to 100 scale) [13]: 90; Foxtail, Giant plant response rating (0 to 100 scale) ([14]; 125 g ai/ha): 90; Foxtail, Giant plant response rating (0 to 100 scale) ([14]; 500 g ai/ha): 100; Kochia plant response rating (0 to 100 scale) (kochia (Kochia scoparia) [15]; 125 g ai/ha): 0; Kochia plant response rating (0 to 100 scale) (kochia (Kochia scoparia) [15]; 500 g ai/ha): 70; Pigweed plant response rating (0 to 100 scale) ([16]; 125 g ai/ha): 0; Pigweed plant response rating (0 to 100 scale) ([16]; 500 g ai/ha): 60; Ragweed plant response rating (0 to 100 scale) ([17]; 125 g ai/ha): 0; Ragweed plant response rating (0 to 100 scale) ([17]; 500 g ai/ha): 40"

# — patent publication US11498899B2, “Nitrone herbicides” (FMC Corporation, priority 2016, dated 2022)
